Data from ChEMBL document CHEMBL1201862, “PubChem BioAssay data set” (2004).
Calls of active or inactive are those of the source.

Columns and labels:
[1] = target: Intestinal-type alkaline phosphatase (Mus musculus, UniProt P24822); test: PubChem AID 488875; assay type: functional
[2] = target: T1, Intestinal-type alkaline phosphatase (Homo sapiens, UniProt P09923); test: human intestinal alkaline phosphatase activators, dose response, biochemical, luminescence, uHTS hits (AID 463120); assay type: functional
T1 sequence (P09923 whole entry): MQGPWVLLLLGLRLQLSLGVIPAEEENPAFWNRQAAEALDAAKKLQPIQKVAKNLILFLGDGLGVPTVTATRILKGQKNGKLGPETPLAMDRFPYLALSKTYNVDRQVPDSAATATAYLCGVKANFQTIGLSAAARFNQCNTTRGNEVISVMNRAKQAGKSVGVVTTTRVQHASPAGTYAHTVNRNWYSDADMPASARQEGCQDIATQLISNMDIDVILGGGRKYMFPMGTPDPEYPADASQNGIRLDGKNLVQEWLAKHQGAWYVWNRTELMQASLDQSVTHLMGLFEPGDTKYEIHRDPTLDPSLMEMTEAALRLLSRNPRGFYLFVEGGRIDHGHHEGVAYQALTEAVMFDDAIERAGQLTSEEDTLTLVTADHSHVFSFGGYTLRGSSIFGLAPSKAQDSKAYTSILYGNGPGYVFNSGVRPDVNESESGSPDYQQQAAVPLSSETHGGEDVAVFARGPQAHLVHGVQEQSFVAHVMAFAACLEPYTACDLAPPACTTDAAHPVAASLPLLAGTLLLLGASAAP

[3] = target: T1, Intestinal-type alkaline phosphatase; test: activation of human intestinal alkaline phosphatase – biochemical, luminescent, uHTS hits, set 2, dose response (AID 488817); assay type: functional;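 further: potency of activators that raise enzyme activity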
[4] = target: T2, Alkaline phosphatase, tissue-nonspecific isozyme (Homo sapiens, UniProt P05186); test: activation of tissue-nonspecific alkaline phosphatase – biochemical, TNAP isozyme, human IAP uHTS hits, selectivity assay for human IAP activator project, dose response (AID 488886); assay type: functional;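 further: potency of compounds raising TNAP activity as a selectivity check on IAP activators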
T2 sequence (P05186 whole entry): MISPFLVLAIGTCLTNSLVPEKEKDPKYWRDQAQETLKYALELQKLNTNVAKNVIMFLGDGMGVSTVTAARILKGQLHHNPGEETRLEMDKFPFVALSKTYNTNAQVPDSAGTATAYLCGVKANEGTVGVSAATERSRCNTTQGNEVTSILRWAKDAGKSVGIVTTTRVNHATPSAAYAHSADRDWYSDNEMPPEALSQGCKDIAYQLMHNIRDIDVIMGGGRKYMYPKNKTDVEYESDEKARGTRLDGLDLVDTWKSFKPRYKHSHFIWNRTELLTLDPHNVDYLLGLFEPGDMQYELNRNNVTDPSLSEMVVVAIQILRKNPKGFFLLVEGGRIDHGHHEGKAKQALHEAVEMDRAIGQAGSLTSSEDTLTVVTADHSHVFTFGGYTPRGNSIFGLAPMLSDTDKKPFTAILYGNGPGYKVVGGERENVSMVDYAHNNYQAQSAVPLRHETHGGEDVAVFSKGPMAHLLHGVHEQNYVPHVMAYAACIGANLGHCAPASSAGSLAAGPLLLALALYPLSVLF

SUMO E1/E2 = SUMO E1/E2 (Homo sapiens, UniProt P63279+Q9UBE0+Q9UBT2); test: SAR analysis of SUMOylation using HTRF in an in-Vitro dose response assay. [Related pubchem assays (depositor defined):AID2006, AID2011, AID2018, AID2069, AID2658]; assay type: functional
SUMO E1/E2, sequence (Q9UBE0 whole entry): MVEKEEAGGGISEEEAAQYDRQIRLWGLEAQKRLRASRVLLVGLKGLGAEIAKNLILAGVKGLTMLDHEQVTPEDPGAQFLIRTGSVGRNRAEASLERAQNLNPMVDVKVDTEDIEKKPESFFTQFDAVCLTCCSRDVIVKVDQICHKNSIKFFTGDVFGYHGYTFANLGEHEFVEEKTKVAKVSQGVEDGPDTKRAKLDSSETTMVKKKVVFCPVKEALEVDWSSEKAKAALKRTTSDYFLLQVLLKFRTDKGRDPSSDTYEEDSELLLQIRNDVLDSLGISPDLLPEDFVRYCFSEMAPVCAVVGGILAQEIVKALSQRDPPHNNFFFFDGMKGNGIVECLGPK
SUMO E1/E2, sequence (Q9UBT2 whole entry): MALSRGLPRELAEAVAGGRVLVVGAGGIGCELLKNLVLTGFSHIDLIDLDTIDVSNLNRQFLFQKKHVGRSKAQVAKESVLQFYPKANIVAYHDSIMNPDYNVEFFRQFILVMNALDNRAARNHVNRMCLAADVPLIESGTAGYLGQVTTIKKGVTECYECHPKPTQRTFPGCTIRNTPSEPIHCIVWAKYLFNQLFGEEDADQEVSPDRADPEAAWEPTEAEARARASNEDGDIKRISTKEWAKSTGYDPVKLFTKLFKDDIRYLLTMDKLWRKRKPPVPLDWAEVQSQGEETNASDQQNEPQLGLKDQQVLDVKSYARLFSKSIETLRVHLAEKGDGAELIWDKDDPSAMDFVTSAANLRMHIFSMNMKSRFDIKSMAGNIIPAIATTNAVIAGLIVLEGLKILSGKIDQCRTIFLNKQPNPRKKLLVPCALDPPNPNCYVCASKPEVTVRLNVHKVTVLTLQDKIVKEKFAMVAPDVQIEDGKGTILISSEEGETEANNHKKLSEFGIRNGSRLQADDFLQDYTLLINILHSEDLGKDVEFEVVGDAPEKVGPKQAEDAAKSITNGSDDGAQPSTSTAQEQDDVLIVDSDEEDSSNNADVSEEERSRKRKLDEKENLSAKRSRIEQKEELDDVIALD
SUMO E1/E2, sequence (P63279 whole entry): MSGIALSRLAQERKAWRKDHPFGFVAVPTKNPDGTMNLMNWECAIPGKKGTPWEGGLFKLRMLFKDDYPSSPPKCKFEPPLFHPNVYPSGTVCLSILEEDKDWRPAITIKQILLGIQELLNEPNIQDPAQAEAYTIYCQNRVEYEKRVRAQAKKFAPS

[5] = target: Kappa-type opioid receptor (Homo sapiens, UniProt P41145); test: SAR analysis of small molecule agonists of the kappa opioid receptor via a luminescent beta-arrestin assay - Set 3. [Related pubchem assays (depositor defined):AID1777, AID1785, AID1786, AID1966, AID2133, AID2136, AID2284, AID2500]; assay type: functional
Kappa-type opioid receptor, sequence (P41145 whole entry): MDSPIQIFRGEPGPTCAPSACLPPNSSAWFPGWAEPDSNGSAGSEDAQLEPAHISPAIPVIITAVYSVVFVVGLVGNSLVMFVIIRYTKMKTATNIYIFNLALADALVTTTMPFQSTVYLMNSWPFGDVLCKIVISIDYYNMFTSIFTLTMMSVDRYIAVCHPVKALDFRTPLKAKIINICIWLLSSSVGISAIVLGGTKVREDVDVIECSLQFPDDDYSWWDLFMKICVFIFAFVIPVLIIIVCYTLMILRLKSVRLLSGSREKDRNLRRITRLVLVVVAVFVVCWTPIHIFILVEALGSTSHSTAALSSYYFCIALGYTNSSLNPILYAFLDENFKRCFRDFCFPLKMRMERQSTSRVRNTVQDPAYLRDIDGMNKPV

Cytochrome P450 1A2 [6] = target: T3, Cytochrome P450 1A2 (Homo sapiens, UniProt P05177);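 further: PubChem cytochrome P450 panel assay, CYP1A2 panel member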
T3 sequence (P05177 whole entry): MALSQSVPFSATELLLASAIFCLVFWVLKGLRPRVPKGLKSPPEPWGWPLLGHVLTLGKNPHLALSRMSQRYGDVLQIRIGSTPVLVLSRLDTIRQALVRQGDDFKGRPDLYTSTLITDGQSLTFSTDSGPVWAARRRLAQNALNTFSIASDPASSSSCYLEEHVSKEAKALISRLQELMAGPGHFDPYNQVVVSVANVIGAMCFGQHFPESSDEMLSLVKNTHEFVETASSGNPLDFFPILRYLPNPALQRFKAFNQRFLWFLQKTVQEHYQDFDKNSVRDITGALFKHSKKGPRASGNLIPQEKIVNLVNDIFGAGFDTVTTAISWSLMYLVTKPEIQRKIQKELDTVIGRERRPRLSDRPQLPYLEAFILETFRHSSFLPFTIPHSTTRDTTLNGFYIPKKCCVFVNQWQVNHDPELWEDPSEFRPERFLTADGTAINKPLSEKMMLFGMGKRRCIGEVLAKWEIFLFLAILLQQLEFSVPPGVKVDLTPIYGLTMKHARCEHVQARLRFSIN

Cytochrome P450 1A2 [7] = target: T3, Cytochrome P450 1A2; remark: listed apart in the source

Intestinal-type alkaline phosphatase (Mus musculus, UniProt P24822), sequence (P24822 whole entry): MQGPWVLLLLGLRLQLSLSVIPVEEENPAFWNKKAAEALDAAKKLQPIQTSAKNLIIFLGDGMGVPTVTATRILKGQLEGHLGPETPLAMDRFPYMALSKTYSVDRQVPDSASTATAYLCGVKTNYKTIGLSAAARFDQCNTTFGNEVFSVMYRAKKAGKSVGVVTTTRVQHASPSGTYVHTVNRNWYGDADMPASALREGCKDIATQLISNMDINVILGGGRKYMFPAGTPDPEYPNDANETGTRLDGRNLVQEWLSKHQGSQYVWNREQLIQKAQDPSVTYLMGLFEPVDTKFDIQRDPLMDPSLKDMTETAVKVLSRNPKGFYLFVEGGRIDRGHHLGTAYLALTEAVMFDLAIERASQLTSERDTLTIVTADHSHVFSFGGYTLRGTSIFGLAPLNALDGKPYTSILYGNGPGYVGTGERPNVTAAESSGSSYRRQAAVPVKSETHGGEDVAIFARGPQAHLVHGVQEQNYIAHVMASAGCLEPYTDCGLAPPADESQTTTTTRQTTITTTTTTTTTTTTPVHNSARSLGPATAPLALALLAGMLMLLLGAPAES

Cc1ccccc1CN1CCC(n2nccc2NC(=O)CCCc2ccccc2)CC1
EC50 [1]: 61 µM (active) | EC50 [2]: 70.7 µM (active) | EC50 [3]: 64.1 µM (active) | EC50 [4]: 63.4 µM (active)

COC(=O)c1ccc2c(c1)C1C=CCC1C(c1ccc(C(=O)O)cc1)N2 (stereo not drawn)
IC50 (SUMO E1/E2): > 100 µM (inactive)

COc1ccc(Cn2c(SCc3ccc(Cl)c(C(F)(F)F)c3)nnc2-c2ccccn2)cc1
EC50 [5]: 18.8 µM (inactive)

c1cncc([C@@H]2CCCCN2)c1 [ANABASINE]
AC50 (Cytochrome P450 1A2 [6]): 5.01 µM (inconclusive) | AC50 (Cytochrome P450 1A2 [7]): inconclusive
